{
  "source": "patent US5610174A",
  "about": "“Use of α1A -selective adrenoceptor agonists for the treatment of urinary incontinence” (priority 1995, dated 1997)",
  "key": {"[1]": {"biological_target": "T1, dog BN, female (α1-adrenoceptor) (Canis lupus, UniProt A0A8I3NK63)", "T1 sequence (A0A8I3NK63 1-466)": "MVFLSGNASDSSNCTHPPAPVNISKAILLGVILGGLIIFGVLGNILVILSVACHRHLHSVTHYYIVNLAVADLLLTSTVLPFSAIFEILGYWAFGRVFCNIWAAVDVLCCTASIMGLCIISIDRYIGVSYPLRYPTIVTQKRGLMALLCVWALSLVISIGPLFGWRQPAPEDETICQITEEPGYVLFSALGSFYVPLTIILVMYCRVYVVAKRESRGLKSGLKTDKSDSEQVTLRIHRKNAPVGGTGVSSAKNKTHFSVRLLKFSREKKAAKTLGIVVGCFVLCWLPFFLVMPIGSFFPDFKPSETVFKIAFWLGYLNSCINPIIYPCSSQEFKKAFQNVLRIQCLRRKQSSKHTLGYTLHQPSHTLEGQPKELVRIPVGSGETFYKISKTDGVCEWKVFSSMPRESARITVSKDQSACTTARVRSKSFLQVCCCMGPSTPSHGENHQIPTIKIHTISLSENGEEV", "assay": "Contractile study in isolated female dog bladder neck", "conditions": "for pEC50 Bladder Neck: agonist contraction; for pEC50 Bladder Neck / sensitivity of the contraction to prazosin, bladder neck: female dog bladder neck", "description": "In addition, similar studies were done using bladder neck tissue from female dogs. In order to identify the specific receptor subtype in each tissue, the pharmacological profile was compared to the profiles for these same drugs at the cloned human α1A, α1B, or α1C subtypes.\nTissue samples from the proximal urethra of male humans and male and female rabbits, as well as tissue samples from both the proximal urethra and bladder neck of male and female dogs were cut into transverse strips (3×10 mm) and suspended under 0.5 g tension in Krebs' physiological buffer at 37° C. To determine agonist potency (pEC50 )and antagonist affinity constants (pKB), concentration-effect curves to the non-selective agonist phenylepherine were constructed in the absence and in the presence of increasing concentrations of the antagonist. Up to four sequential curves were constructed in each tissue. Antagonists were allowed to equilibrate for 1h before each concentration-effect curve, and the drugs were completely washed out in between successive curves. In each experiment, one tissue served as a \"time control\", in which no antagonist was added so that changes in tissue sensitivity could be assessed as a function of time. […] In instances in which a single concentration of antagonist was used, pKB values were determined by the equation: […], where CR is defined as the ratio of the agonist EC50 in the presence of the antagonist to that in the absence of the antagonist."}, "human 5-HT1Dβ receptor": {"biological_target": "T2, human 5-HT1Dβ receptor (Homo sapiens, UniProt P28222)", "T2 construct": "expressed in transfected cells; host or cells: LM(tk-) clonal cell line, designated Ltk-11, ATCC CRL 10422 (cell lysates)", "T2 sequence (P28222 whole entry)": "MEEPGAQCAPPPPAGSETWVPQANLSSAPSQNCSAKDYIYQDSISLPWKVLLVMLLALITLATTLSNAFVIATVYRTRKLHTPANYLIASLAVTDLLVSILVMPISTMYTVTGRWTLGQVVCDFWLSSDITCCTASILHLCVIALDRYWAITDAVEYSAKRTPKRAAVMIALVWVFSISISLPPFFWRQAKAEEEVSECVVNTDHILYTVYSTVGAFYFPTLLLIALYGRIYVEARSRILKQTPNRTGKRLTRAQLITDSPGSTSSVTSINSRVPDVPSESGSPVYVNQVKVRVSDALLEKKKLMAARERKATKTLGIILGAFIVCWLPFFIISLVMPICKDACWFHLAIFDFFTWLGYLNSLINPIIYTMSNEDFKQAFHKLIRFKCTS", "assay": "Radioligand binding at human 5-HT1Dβ", "description": "Human Serotonin Receptors\n5-HT1Dα, 5-HT1Dβ, 5-HT1E, 5-HT1F, and 5-HT7 Receptors: The cell lysates of LM(tk-) clonal cell line stably transfected with the genes encoding each of these 5-HT receptor-subtypes were prepared as described above. The cell line for the 5-HT1Dαreceptor, designated as Ltk-8-30-84, was deposited on Apr. […] The cell for the 5-HT1Dβ receptor, designated as Ltk-11, was deposited on Apr. […] The cell line for the 5-HT1E receptor, designated 5-HT1E -7, was deposited on Nov. […] The cell line for the 5-HT1F receptor, designated L-5-HT1F, was deposited on Dec. […] The cell line for the 5-HT7 receptor, designated as L-5-HT-4B, was deposited on Oct. […] These preparations were suspended in 50 mM Tris-HCl buffer (pH 7.4 at 37° C.) containing 10 mM MgCl2, 0.2 mM EDTA, 10 μM pargyline, and 0.1% ascorbate. […] Nonspecific binding was determined in the presence of 10 μM serotonin. The bound radioligand was separated by filtration through GF/B filters using a cell harvester."}, "human α2C adrenoceptor": {"biological_target": "T3, human α2C adrenoceptor (Homo sapiens, UniProt P18825)", "T3 construct": "expressed in transfected cells; host or cells: LM(tk-)", "T3 sequence (P18825 1-462)": "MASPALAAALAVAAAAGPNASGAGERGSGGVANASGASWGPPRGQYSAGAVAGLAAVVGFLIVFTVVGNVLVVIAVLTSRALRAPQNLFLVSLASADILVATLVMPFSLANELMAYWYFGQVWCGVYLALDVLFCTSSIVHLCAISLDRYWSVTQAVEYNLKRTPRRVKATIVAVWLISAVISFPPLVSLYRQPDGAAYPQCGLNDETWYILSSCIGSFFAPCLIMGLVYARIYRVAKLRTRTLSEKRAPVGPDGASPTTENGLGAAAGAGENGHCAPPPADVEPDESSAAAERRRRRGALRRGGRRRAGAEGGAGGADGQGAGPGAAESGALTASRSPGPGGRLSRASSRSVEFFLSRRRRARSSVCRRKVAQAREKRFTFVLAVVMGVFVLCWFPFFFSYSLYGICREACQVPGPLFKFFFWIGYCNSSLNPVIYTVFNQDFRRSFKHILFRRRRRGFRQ", "assay": "Radioligand binding ([3H]rauwolscine) at cloned human α2C", "description": "(§1) To determine the affinity of compounds at the α2 receptors, LM(tk-) cell lines stably transfected with the genes encoding the α2A, α2B, and α2C receptors were used. Cell lysates were prepared as described above (see Radioligand Binding Assays), and suspended in 25 mM glycylglycine buffer (pH 7.6 at room temperature). Equilibrium competition binding assays were performed using [^3 H] rauwolscine (0.5 nM), and nonspecific binding was determined by incubation with 10 μM phentolamine. The bound radioligand was separated by filtration through GF/B filters using a cell harvester."}, "human α2B adrenoceptor": {"biological_target": "T4, human α2B adrenoceptor (Homo sapiens, UniProt P18089)", "T4 sequence (P18089 1-450)": "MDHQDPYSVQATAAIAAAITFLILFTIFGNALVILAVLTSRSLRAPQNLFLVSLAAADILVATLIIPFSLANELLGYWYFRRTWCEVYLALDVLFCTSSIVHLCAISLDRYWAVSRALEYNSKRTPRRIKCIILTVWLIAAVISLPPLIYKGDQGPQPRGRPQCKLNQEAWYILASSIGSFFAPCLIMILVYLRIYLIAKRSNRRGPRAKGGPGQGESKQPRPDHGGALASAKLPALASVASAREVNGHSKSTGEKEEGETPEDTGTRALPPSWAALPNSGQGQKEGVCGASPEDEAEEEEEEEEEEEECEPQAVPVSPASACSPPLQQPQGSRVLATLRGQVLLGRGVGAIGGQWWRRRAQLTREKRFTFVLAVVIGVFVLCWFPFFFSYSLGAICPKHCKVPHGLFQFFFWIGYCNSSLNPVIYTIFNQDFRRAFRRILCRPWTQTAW", "assay": "Radioligand binding ([3H]rauwolscine) at cloned human α2B", "design": "expressed in transfected cells", "description": "as §1"}, "[2]": {"conditions": "Table 3, agonists, read-out: pKi α2C (converted)"}},
  "note": "Where two headings read alike, the source gives them in different places.",
  "data": [
    {"smiles": "CNCCc1ccc(O)c(NS(C)(=O)=O)c1", "note": "[SK&F 102652]", "values": [
      {"measurement": "pEC50 Bladder Neck", "setting": "[1]", "value": 5.7},
      {"measurement": "sensitivity of the contraction to prazosin, bladder neck", "setting": "[1]", "value": "highly sensitive to prazosin"},
      {"measurement": "pKi 5-HT1Dβ", "setting": "human 5-HT1Dβ receptor; [3H]serotonin", "value": 5.5}
    ]},
    {"smiles": "CS(=O)(=O)Nc1c(O)ccc2c1CCCC2C1=NCCN1", "note": "(racemic) [Compound A-61603, (±)-N-[5-(4,5-Dihydro-1H-imidazol-2-yl)-2-hydroxy-5,6,7,8-tetra-hydronaphthalen-1-yl]methanesulfonamide]", "values": [
      {"measurement": "Ki", "setting": "human α2C adrenoceptor; [2]", "value": 631, "unit": "nM"},
      {"measurement": "pEC50 Bladder Neck", "setting": "[1]", "value": 6.8},
      {"measurement": "sensitivity of the contraction to prazosin, bladder neck", "setting": "[1]", "value": "highly sensitive to prazosin"},
      {"measurement": "Ki", "setting": "human 5-HT1Dβ receptor; [3H]serotonin, read-out: pKi 5-HT1Dβ (converted)", "value": 6310, "unit": "nM"},
      {"measurement": "Ki", "setting": "human α2B adrenoceptor; Table 3, agonists, read-out: pKi α2B (converted)", "value": 316, "unit": "nM"}
    ]},
    {"smiles": "COc1ccc(OC)c(C(O)CN)c1", "note": "(racemic) [ST-1059, (±)-2-Amino-1-(2, 5 dimethoxyphenyl) ethanol]", "values": [
      {"measurement": "Ki", "setting": "human α2C adrenoceptor", "value": 3980, "unit": "nM"},
      {"measurement": "Ki", "setting": "human α2B adrenoceptor", "value": 1580, "unit": "nM"}
    ]},
    {"smiles": "C[C@H](N)[C@H](O)c1ccccc1", "note": "[(-)-norephedrine]", "values": [
      {"measurement": "Ki", "setting": "human α2C adrenoceptor", "value": 3160, "unit": "nM"},
      {"measurement": "Ki", "setting": "human α2B adrenoceptor", "value": 251, "unit": "nM"}
    ]},
    {"smiles": "COc1ccccc1N1CCN(CCCNc2c(C)c(=O)n(C)c(=O)n2C)CC1", "note": "[Compound 5-MU]", "values": [
      {"measurement": "pKB Dog BN Female", "setting": "[1]; versus phenylephrine-induced contraction", "value": 8.8}
    ]},
    {"smiles": "CN[C@@H](C)[C@H](O)c1ccccc1", "note": "[(-)-ephedrine]", "values": [
      {"measurement": "Ki", "setting": "human α2C adrenoceptor", "value": 7940, "unit": "nM"},
      {"measurement": "Ki", "setting": "human α2B adrenoceptor", "value": 2510, "unit": "nM"}
    ]},
    {"smiles": "COc1ccc(SC)c2c1C[C@@H]1[C@@H](C2)OCCN1C", "note": "(relative stereo) [SDZ NVI-085, (±)-trans-4-Methyl-6-methoxy-9-thiomethoxy-3,4,4a, 5,10,10a-hexahydro-2H-naphtho[2,3-b][1,4]oxazine]", "values": [
      {"measurement": "Ki", "setting": "human α2C adrenoceptor; [2]", "value": 794, "unit": "nM"},
      {"measurement": "Ki", "setting": "human 5-HT1Dβ receptor", "value": 20, "unit": "nM"},
      {"measurement": "Ki", "setting": "human α2B adrenoceptor", "value": 63.1, "unit": "nM"}
    ]}
  ]
}
